In publication PMC10222548, “Semisynthesis, Biological Evaluation and Molecular Docking Studies of Barbatic Acid Derivatives as Novel Diuretic Candidates” (Molecules, 2023):

What was measured:
[1] = test system: Na^+ transport, MDCK cells; assay: In vitro diuretic activity: Na^+ transport inhibition, Transwell chamber seeded with MDCK cells; format: cell-based, canine; settings: for inhibition at 100 µM: Canis lupus familiaris, MDCK, read-out: Transport Inhibition Rate (%) Na^+; for inhibition at 100 µM / Transport Inhibition Rate (%) Na^+: 100 μmol/L, MDCK cells in Transwell, mean ± SD of three replicates, negative = promotion
Description: (§1) The traditional methods for screening diuretic drugs are mostly in vivo experiments with mice, which have a long experimental cycle and are not suitable for screening massive compounds. As we know, the generation and excretion of urine involve two processes: glomerular filtration and tubular reabsorption. Reabsorption refers to the process in which the renal tubular epithelial cells transport water and certain solutes from the tubular fluid (urine) partially or entirely back into the bloodstream. Then, 99% of the water in the original urine filtered by the glomerulus is reabsorbed, and the transport of Na^+ and Cl^− plays an important role in this process. Thiazide and furosemide diuretics exert their diuretic effects by inhibiting the transport of Na^+ and Cl^−, which affects the tubular reabsorption of the original urine. Based on this principle, we established a new type of cell screening model for diuretic active drugs. Madin–Darby canine kidney (MDCK) cells were inoculated into a Transwell chamber to simulate the renal tubules. This cell model could transport and absorb external NaCl, simulating the reabsorption phenomenon. […] The effectiveness of this model was confirmed by the validation of hydrochlorothiazide, which is a commercially available diuretic drug and could inhibit the transport of Na^+ and Cl^− in renal tubules.
(§2) Generally, the transport of Na^+ and Cl^− plays an important role in glomerular filtration and tubular reabsorption. […] For example, inhibition rates of transport of 6a and 6c were over 30%, and had better inhibitory ability than barbatic acid. […] When ethyl, propyl, and benzyl were substituted on R^1, the introduction of any group could not enhance the inhibitory activity of barbatic acid, such as 6h–u and 6j′–6p′.
(§3) Log-phase MDCK cells were seeded in the upper chambers of Transwell plates (4 × 10^4 cells/well), and 800 µL of complete culture medium was added to the lower chambers. After 24 h of incubation at 37 °C, the electrical resistance of the upper chamber cells was measured one by one (R = (Rcell − Rblank) × 0.04π). When the electrical resistance of the upper chamber cells reached ≥300 Ω cm^2, the upper chamber medium was removed and replaced with the drug solution. The blank group (given normal saline), the experimental group (1, 6a–6p′, 100 μmol/L), and the hydrochlorothiazide group (100 μmol/L) were set, and each well was treated with 100 µL of the corresponding solution. The cells were then further incubated for 24 h. After that, the upper and lower chamber fluids were removed, and 200 µL of NaCl solution (15 mg/mL) was added to the upper chamber, while 800 µL of DMEM was added to the lower chamber for continued incubation. At 0.5, 1, 2, and 3 h, 50 µL of the lower chamber fluid was taken and the OD values were measured using Na^+ and Cl^− detection kits. The transport inhibition rate (%) was calculated as follows: transport inhibition rate (%) = (ODblank − ODexperimental)/ODblank × 100%.

[2] = test system: C2O4^2− transport, MDCK cells; assay: In vitro litholytic activity: C2O4^2− transport inhibition, Transwell chamber with MDCK cells; format: cell-based, canine; settings: Canis lupus familiaris; 100 μmol/L, MDCK cells in Transwell; mean ± SD of three replicates; read-out: Transport Inhibition Rate (%) C2O4^2−
Procedure: (§4) On the other hand, all compounds had little inhibitory effect on Ca^2+ transport. The structure–activity relationships (SARs) were also observed. […] On the other hand, the introduction of the benzyl group to the R^1 or R^2 of barbatic acid could not lead to more promising compounds, such as 6a, 6n, 6u, 6b′, and 6i′–p′.
(§5) Logarithmic-phase DMCK cells were inoculated in the upper chamber of a Transwell plate (4 × 10^4 cells/well). Then, 800 µL of complete culture medium was added to the lower chamber, and the cells were incubated for 24 h until they adhered to the wall. The resistance value of the upper chamber cells was measured one by one at 37 °C (R = (Rcell − Rblank) × 0.04π). When the resistance value of the upper chamber cells was ≥300 Ω cm^2, the upper chamber liquid was discarded for drug administration. A control group (given physiological saline) and an experimental group (1, 6a–6p′, 100 μmol/L) were set up, and 100 µL of each drug was administered per well, followed by continued incubation for 24 h. Then, the upper and lower chamber liquids were discarded, and 200 µL of CaC2O4 (30 mmol/L) solution was added to the upper chamber, and 800 µL of PBS solution was added to the lower chamber for continued incubation. At 0.5, 1, 2, and 3 h, 50 µL of the lower chamber liquid was taken and then tested using the Ca^2+ and C2O4^2− detection kits and the following detection methods. The transport inhibition rate (%) = (ODblank − ODexperimental)/ODblank × 100%.

MDCK cells = assay: MTT cytotoxicity assay on MDCK cells; format: cell-based, canine; settings: Canis lupus familiaris, 100 μmol/L, 24 h, mean ± SD of three replicates, read-out: Growth Inhibition Rate (%)
Procedure: First, we used the MTT method to perform cytotoxicity of barbatic acid derivatives (1, 6a–6p′) on MDCK cells at the concentration of 100 μmol/L, and the results are shown in Table 1.
The MTT assay was used to evaluate the cytotoxicity of the target compounds on DMCK cells. Logarithmic-growth-phase DMCK cells were seeded in a 96-well plate (10^4 cells/well) and incubated in a cell culture incubator for 24 h. The culture medium was then removed and replaced with a drug-containing medium for the treatment groups (1, 6a–6p′, 100 μmol/L), normal saline for the control group, or hydrochlorothiazide (100 μmol/L) for the positive control group. Each well was treated with 100 µL of the respective solution and incubated for an additional 24 h. The culture medium was then removed and replaced with a DMEM solution containing 20 µL of MTT (5 mg/mL). After incubating for 4 h, the liquid in each well was removed and replaced with 150 µL of DMSO, which was shaken for 10 min to ensure thorough mixing. The absorbance at 490 nm was measured to determine the optical density (OD) of each well. Cell growth inhibition rate (%) = (ODBlank − ODExperimental)/ODBlank × 100%.

[3] = test system: Cl^− transport, MDCK cells; assay: In vitro diuretic activity: Cl^− transport inhibition, Transwell chamber seeded with MDCK cells; format: cell-based, canine; settings: Canis lupus familiaris; 100 μmol/L, MDCK cells in Transwell; mean ± SD of three replicates; negative = promotion; read-out: Transport Inhibition Rate (%) Cl^−
Description: as §1, §2, §3

[4] = test system: Ca^2+ transport, MDCK cells; assay: In vitro litholytic activity: Ca^2+ transport inhibition, Transwell chamber with MDCK cells; format: cell-based, canine; settings: Canis lupus familiaris, 100 μmol/L, mean ± SD of three replicates, read-out: Transport Inhibition Rate (%) Ca^2+
Procedure: as §4, §5

Row | Structure (SMILES) | inhibition at 100 µM [1] [%] | melting point [°C] | inhibition at 100 µM [2] [%] | inhibition at 100 µM (MDCK cells) [%] | inhibition at 100 µM [3] [%] | inhibition at 100 µM [4] [%] | Transport Inhibition Rate (%) Na^+ [1] [%] | Na^+ transport inhibition rate at 1, 2, and 3 h ([1]; evaluated at 1, 2, and 3 h (Figure 3))
1 | C=CCOc1cc(C)c(C(=O)Oc2cc(C)c(C(=O)OCC)c(O)c2C)c(O)c1C [6d′, 4-(ethoxycarbonyl)-3-hydroxy-2,5-dimethylphenyl 4-(allyloxy)-2-hydroxy-3,6-dimethylbenzoate] | -7.24 ± 0.75 | 116 to 120 | 0.52 ± 1.86 | 1.42 | -5.06 ± 0.35 | 2.04 ± 0.03 |  | 
2 | CCCOC(=O)c1c(C)cc(OC(=O)c2c(C)cc(OCCC)c(C)c2O)c(C)c1O [Compound 6q, 3-hydroxy-2,5-dimethyl-4-(propoxycarbonyl)phenyl 2-hydroxy-3,6-dimethyl-4-propoxybenzoate] | 9.39 ± 0.25 | 126 to 130 | -26 ± 4.17 | < 0 | 11.6 ± 2.2 | 4.61 ± 0.32 |  | 
3 | C=CCOC(=O)c1c(C)cc(OC(=O)c2c(C)cc(OCc3ccccc3)c(C)c2O)c(C)c1O [6n′, allyl 4-(4-(benzyloxy)-2-hydroxy-3,6-dimethylbenzoyloxy)-2-hydroxy-3,6-dimethylbenzoate] | -1.85 ± 0.8 | 127 to 130 | -29.4 ± 3.89 | < 0 | -13 ± 0.15 | 0.1 ± 0.3 |  | 
4 | C=CCOC(=O)c1c(C)cc(OC(=O)c2c(C)cc(OCCC)c(C)c2O)c(C)c1O [Compound 6r, allyl 2-hydroxy-4-(2-hydroxy-3,6-dimethyl-4-propoxybenzoyloxy)-3,6-dimethylbenzoate] | 1.14 ± 1.25 | 98 to 111 | 9.67 ± 4.6 | < 0 | -10.3 ± 1.4 | 5.85 ± 0.36 |  | 
5 | COc1cc(C)c(C(=O)Oc2cc(C)c(C(=O)OCc3ccccc3)c(O)c2C)c(O)c1C [Compound 6a, Benzyl 2-hydroxy-4-((2-hydroxy-4-methoxy-3,6-dimethylbenzoyl)oxy)-3,6-dimethylbenzoate] | > 30 | 113 to 115 | -16.6 ± 0.37 | < 0 | 8.76 ± 0.25 | -7.98 ± 0.17 | 33.51 ± 5.95 | 
6 | C=CCOc1cc(C)c(C(=O)Oc2cc(C)c(C(=O)OCc3ccccc3)c(O)c2C)c(O)c1C [6i′, benzyl 4-(4-(allyloxy)-2-hydroxy-3,6-dimethylbenzoyloxy)-2-hydroxy-3,6-dimethylbenzoate] | -12.9 ± 1.6 | 75 to 78 | 11.4 ± 1.13 | 2.43 ± 0.3 | -8.43 ± 2.85 | 2.68 ± 0.11 |  | 
7 | CCOC(=O)c1c(C)cc(OC(=O)c2c(C)cc(OCc3ccccc3)c(C)c2O)c(C)c1O [6k′, 4-(ethoxycarbonyl)-3-hydroxy-2,5-dimethylphenyl 4-(benzyloxy)-2-hydroxy-3,6-dimethylbenzoate] | 14.1 ± 3.2 | 123 to 126 | 10.3 ± 2.11 | 1.45 ± 0.1 | -19.6 ± 2.4 | 1.34 ± 0.1 |  | 
8 | Cc1cc(OC(=O)c2c(C)cc(OC(C)C)c(C)c2O)c(C)c(O)c1C(=O)OCc1ccccc1 [6b′, benzyl 2-hydroxy-4-(2-hydroxy-4-isopropoxy-3,6-dimethylbenzoyloxy)-3,6-dimethylbenzoate] | > 30 | 83 to 86 | -20.6 ± 1.31 | < 0 | 15.9 ± 0.25 | 0.73 ± 0.08 | 33.08 ± 0.35 | above 20%
9 | CCOc1cc(C)c(C(=O)Oc2cc(C)c(C(=O)OCc3ccccc3)c(O)c2C)c(O)c1C [Compound 6n, benzyl 4-(4-ethoxy-2-hydroxy-3,6-dimethylbenzoyloxy)-2-hydroxy-3,6-dimethylbenzoate] | -3.98 ± 0.15 | 129 to 131 | 0.11 ± 0.7 | 0.36 ± 0.8 | -4.47 ± 0.2 | -2.13 ± 0.3 |  | 
